From paper PMC6472966 (Analytical and bioanalytical chemistry, 2019)

Experiments:
[1] = bulk, off-chip studies; cited from earlier work
HeLa cells = assay type: cell-based; details: 10 μM peptide, 60 min at 37°C, hierarchical cluster analysis, Fig. 4a
[2] = at high concentrations; cited from earlier work
[3] = cited from earlier work

Row | Substance | permeability efficiency on average compared to OWRWR and RWRWR [1] | normalized fluorescence of the largest cluster (subpopulation) (HeLa cells) | cytotoxicity [2] | stability under intracellular conditions compared to TAT and ARG [3]
1 | FAM-RRRRRRRRR [ARG] | higher permeability efficiencies | ~ 1200 | – | –
2 | FAM-YGRKKRRQRRR [TAT] | higher permeability efficiencies | – | high cytotoxicity | –
3 | Ac-OWVRVpGO(FAM)WIRQ-NH2 [OWRWR] | – | – | – | enhanced stability
